Laboratory results taken from the NIST ThermoML archive (doi:10.1016/j.jct.2005.10.004).
Several values for one entry are separate records, joined by “and”; a condition that tells them apart may be missing. Equal entries are not always repeated.

Settings: Liquid, Buoyancy - hydrostatic balance with magnetic suspension - one sinker

N#N [nitrogen]
Settings | mass density
249.96 K, 5023.9 kPa | 69.8983 kg/m3
249.96 K, 5024.2 kPa | 69.9018 kg/m3
249.96 K, 10070 kPa | 141.612 kg/m3
249.96 K, 15267 kPa | 211.548 kg/m3
249.96 K, 15270 kPa | 211.579 kg/m3 and 211.588 kg/m3
249.96 K, 19857 kPa | 266.561 kg/m3
250 K, 4994.5 kPa | 69.4686 kg/m3
274.97 K, 10066 kPa | 125.016 kg/m3 and 125.014 kg/m3
274.97 K, 19871 kPa | 235.319 kg/m3
274.97 K, 19875 kPa | 235.358 kg/m3
299.97 K, 10974 kPa | 122.253 kg/m3
299.97 K, 13855 kPa | 152.56 kg/m3 and 152.561 kg/m3
299.97 K, 16780 kPa | 181.982 kg/m3
299.98 K, 16788 kPa | 182.05 kg/m3
399.99 K, 10101 kPa | 81.9701 kg/m3
399.99 K, 14807 kPa | 117.441 kg/m3
399.99 K, 17250 kPa | 135.043 kg/m3
400 K, 7435.4 kPa | 61.0376 kg/m3
400 K, 10100 kPa | 81.9663 kg/m3
400 K, 19953 kPa | 153.853 kg/m3
400 K, 19959 kPa | 153.899 kg/m3
